From patent US20010049368A1, “Method for treating or preventing depression” (priority 2000, published 2001)
Values belong to the molecule of their own block, whether it stands above or below them.

Assays:
human NK-1 receptor = target: T1, human NK-1 receptor (Homo sapiens, UniProt P25103); assay: NK-1 receptor binding assay in intact CHO cells (125I-Tyr8-substance P); conditions: CHO cells expressing the human NK-1 receptor
T1 construct: expressed in transfected cells; host or cells: intact CHO (Chinese hamster ovary) cells
Method: NK-1 receptor binding assays are performed in intact Chinese hamster ovary (CHO) cells expressing the human NK-1 receptor using a modification of the assay conditions described by Cascieri et al, J. Pharmacol. Exp. Ther., 1992, 42, 458. Typically, the receptor is expressed at a level of 3×10^5 receptors per cell. Cells are grown in monolayer culture, detached from the plate with enzyme-free dissociation solution (Speciality Media Inc.), and washed prior to use in the assay. ^125I-Tyr^8-substance P (0.1 nM, 2000 Ci/mmol; New England Nuclear) is incubated in the presence or absence of test compounds (dissolved in 5 μl dimethylsulphoxide, DMSO) with 5×10^4 CHO cells. Ligand binding is performed in 0.25 ml of 50 mM Tris-HCl, pH7.5, containing 5 mM MnCl2, 150 mM NaCl, 0.02% bovine serum albumin (Sigma), 50 μg/ml chymostatin (Peninsula), 0.1 nM phenylmethylsulphonyl fluoride, 2 μg/ml pepstatin, 2 μg/ml leupeptin and 2.8 μg/ml furoyl saccharine. The incubation proceeds at room temperature until equilibrium is achieved (>40 minutes) and the receptor-ligand complex is harvested by filtration over GF/C filters pre-soaked in 0.1% polyethylenimine using a Tomtek 96-well harvester. Non-specific binding is determined using excess substance P (1 μM) and represents <10% of total binding.

[1] = system: PDE IV inhibitor-induced emesis in the ferret; assay: Ferret emesis: PDE4 inhibitors and neurokinin-1 receptor antagonists; format: in vivo; conditions: NK-1 antagonist 3 mg kg-1 i.p. or s.c. 30 minutes prior to oral emetic dose of PDE IV inhibitor
Method: Intracerebroventricular (i.c.v.) administration was performed following a surgical implantation of an i.c.v. guide cannula. Under isoflurane anaesthesia, a 22 gauge stainless steel guide cannula (total length=20 mm) was lowered 9 mm below the surface of the skull, at the midline, 2 mm anterior to the cross-suture of the posterior edge of the skull. The tip of the guide cannula is then positioned 3-5 mm directly above the area postrema. The guide cannula was fixed to the skull using 2 screws and dental acrylic cement. The animals received antibiotic (Clamoxyl LA, SmithKline Beecham, Surrey, U.K.; 15 mg kg^−1 s.c.) and analgesic injections (Zenecarp, C-Vet Limited, Edmounds, U.K.; 5 mg kg^−1 s.c.) and were housed in individual cages. They were allowed at least 1 week to recover. Intracerebroventricular administration of drugs was performed by inserting an injection unit of 24-25 mm (level of the area postrema) or 27 mm (for brain tissue injection) length into the guide cannula and infusing 2 μl of the drug solution (or vehicle) over 1 minute. The drugs were dissolved in DMSO or sterile water. […]
Anti-emetic agents ondansetron (3 mg kg^−1 i.p.), and neurokinin-1 receptor antagonists (3 mg kg^−1 i.p. or s.c.) were administered 30 minutes prior to an oral challenge with an emetic dose of selected PDE IV inhibitors. […] The emetic response was monitored as described earlier. […]

[2] = system: emesis in ferrets (retches and vomits); assay: Ferret emesis: PDE4 inhibitors and alpha-2 adrenoreceptor agonists/antagonists; conditions: for emesis (retching and vomiting) induced by the drug itself: yohimbine by intraperitoneal injection, clonidine 62.5-250 μg kg-1
Method: Experiments were conducted using male, adult, fitch or albino ferrets. They were housed in a humidity and temperature controlled environment and fed on carnivore diet (standard cat food) once a day with water ad libitum. On the day of the experiment, the animals were put in individual observation cages and left to habituate for at least 30 minutes.
Drugs were dissolved immediately before use in 100% PEG 300 or sterile water). Oral administration (p.o.) was performed using a 10 cm feeding tube and drugs were administered in a dosing volume of 1 ml kg^−1. Subcutaneous (s.c.) injections were performed at the base of the neck, using sterile water or PEG 300 as the vehicle. The injection volume used was 0.5-1.0 ml kg^−1. For intravenous (i.v.) injections, the left jugular vein was catheterized with a polyethene cannula under halothane anaesthesia. Drugs were dissolved in PEG 300 50% in sterile water and injected in a volume of 1 ml-kg^−1. The vein was then ligated, the incision closed and the animals observed continuously thereafter.
Ferrets were pre-treated with the alpha2-adrenoceptor antagonist, yohimbine.

T1 sequence (P25103 whole entry): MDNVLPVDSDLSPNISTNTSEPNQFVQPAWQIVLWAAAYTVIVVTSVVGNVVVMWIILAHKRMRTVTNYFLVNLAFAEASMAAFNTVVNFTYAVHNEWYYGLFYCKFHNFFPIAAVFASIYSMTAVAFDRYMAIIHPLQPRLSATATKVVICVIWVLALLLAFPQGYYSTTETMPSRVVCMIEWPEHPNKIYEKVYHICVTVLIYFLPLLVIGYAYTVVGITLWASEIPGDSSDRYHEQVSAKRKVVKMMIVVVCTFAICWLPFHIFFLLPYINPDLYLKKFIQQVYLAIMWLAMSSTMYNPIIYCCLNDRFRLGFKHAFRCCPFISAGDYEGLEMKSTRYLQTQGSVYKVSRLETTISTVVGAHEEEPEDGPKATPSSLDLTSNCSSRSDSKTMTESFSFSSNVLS

IC50 (human NK-1 receptor): 0.25 nM
SMILES: C[C@@H](O[C@H]1OCCN(Cc2nn[nH]c2CN(C)C)[C@H]1c1ccccc1)c1cc(C(F)(F)F)cc(C(F)(F)F)c1 [2-(R)-(1-(R)-(3,5-bis(trifluoromethyl)phenyl)ethoxy)-4-(5-(N,N-dimethylamino)methyl-1,2,3-triazol-4-yl)methyl-3-(S)-phenylmorpholine]

SMILES: COc1ccccc1CN[C@H]1CCCN[C@H]1c1ccccc1 [CP-99,994]
effect on PDE IV inhibitor-induced emesis [1]: abolished

SMILES: CS(=O)(=O)NCCN1C(=O)NC[C@]12CCN1CCc3c(oc4ccccc34)[C@@H]1C2 [MK-467]
emesis (retching and vomiting) induced by the drug itself [2]: Emesis was also recorded

SMILES: CN1CC[C@]2(CCN3CCc4c(oc5ccccc45)[C@@H]3C2)N(C)C1=O [MK-912]
emesis (retching and vomiting) induced by the drug itself [2]: Emesis was also recorded

SMILES: Clc1cccc(Cl)c1N=C1NCCN1 [clonidine]
number of retches and vomits induced by RS 14203 ([2]; RS 14203 1 mg kg-1 p.o., clonidine 62.5-250 μg kg-1 pre-treatment): dose-dependently decreased
latency of onset of RS 14203-induced emesis ([2]; RS 14203 1 mg kg-1 p.o., clonidine pre-treatment): increased
emesis induced by CT-2450 ([2]; clonidine 250 μg kg-1, CT-2450 30 mg kg-1 p.o., all animals treated): abolished
animals with complete protection against R-rolipram-induced emesis ([2]; clonidine 250 μg kg-1, R-rolipram 3 mg kg-1 p.o.): two out of three
animals with complete protection against RS 14203-induced emesis ([2]; clonidine 250 μg kg-1, RS 14203 1 mg kg-1 p.o.): five out of six

SMILES: COC(=O)[C@@H]1[C@H]2C[C@H]3c4[nH]c5ccccc5c4CCN3C[C@@H]2CC[C@@H]1O [yohimbine]
emesis (retching and vomiting) induced by the drug itself [2]: induced retching and vomiting in all ferrets treated
